From PubChem BioAssay AID226 (DTP/NCI, 2004) come the findings set out here.

Where “and” joins values, the source holds several entries; their conditions need not be identical. Identical values can stand only once. Inconclusive results and toxic doses are left out.

The assay relates to B6C3F1 mice, intracerebral ependymoblastoma, median survival T/C. Put plainly: NCI In Vivo Anticancer Drug Screen. Data for tumor model Ependymoblastoma (intracerebral) in B6C3F1 mice. The note with it: endpoint: median survival time, higher = longer survival. How it is done: The antitumor activity of compounds was measured in mice bearing transplantable tumors. Survival or tumor size were measured and the results are expressed as the measurement made in the treated group (T) divided by the measurement made in the vehicle treated control group (C). The tumor model used in this assay is Ependymoblastoma (intracerebral) in B6C3F1 mice

Setting [1] is: dose: 50.0 mg/kg/injection, schedule: Q01DX005 (ip), vehicle: saline with Tween-80.
Where [2] appears, read: dose: 100.0 mg/kg/injection, schedule: Q01DX005 (ip), vehicle: saline with Tween-80.
Where [3] appears, read: dose: 25.0 mg/kg/injection, schedule: Q01DX005 (ip), vehicle: saline.
Where [4] appears, read: dose: 1.0 mg/kg/injection, schedule: Q01DX001 (ip), vehicle: Klucel (hydroxypropylcellulose) (HPC).

On to `C=CCSc1ncnc2c1ncn2C1OC(CO)C(O)C1O` (centres undefined), for which the T/C was 98 % of control (dose: 37.5 mg/kg/injection, schedule: Q01DX005 (ip), vehicle: saline with Tween-80); 114 % of control (dose: 75.0 mg/kg/injection, schedule: Q01DX005 (ip), vehicle: saline with Tween-80); 120 % of control (dose: 150.0 mg/kg/injection, schedule: Q01DX005 (ip), vehicle: saline with Tween-80); 106 % of control (dose: 300.0 mg/kg/injection, schedule: Q01DX005 (ip), vehicle: saline with Tween-80).

As for `O=[n+]1c2ccccc2n([O-])c2cc(Cl)ccc21`, the T/C runs as follows: (dose: 12.5 mg/kg/injection, schedule: Q01DX005 (ip), vehicle: saline with Tween-80) 100 % of control; (dose: 25.0 mg/kg/injection, schedule: Q01DX005 (ip), vehicle: saline with Tween-80) 106 % of control; under setting [1], 95 % of control; under setting [2], 89 % of control.

Consider `CC(=O)OCC1OC(n2cnc3c(=S)nc(N)[nH]c32)C(OC(C)=O)C1OC(C)=O` (centres undefined), for which the T/C (dose: 3.12 mg/kg/injection, schedule: Q01DX005 (ip), vehicle: saline) is 102 % of control and 109 % of control; the T/C (dose: 6.25 mg/kg/injection, schedule: Q01DX005 (ip), vehicle: saline) is 104 % of control and 105 % of control and 116 % of control; the T/C (dose: 12.5 mg/kg/injection, schedule: Q01DX005 (ip), vehicle: saline) was 98 % of control and 110 % of control; the T/C under setting [3] was 104 % of control.

Consider `O=C(NC1CCCCC1)OCc1c(COC(=O)NC2CCCCC2)c(-c2ccc(Cl)c(Cl)c2)n2c1CCC2`, for which the T/C was 99 % of control and 102 % of control under setting [1]; 92 % of control and 108 % of control under setting [2]; 104 % of control and 115 % of control (dose: 200.0 mg/kg/injection, schedule: Q01DX005 (ip), vehicle: saline with Tween-80); 115 % of control and 118 % of control (dose: 400.0 mg/kg/injection, schedule: Q01DX005 (ip), vehicle: saline with Tween-80); 106 % of control and 110 % of control (dose: 800.0 mg/kg/injection, schedule: Q01DX005 (ip), vehicle: saline with Tween-80).

`CSCS(=O)C[C@H](CO)NC(=O)/C=C/c1c(C)[nH]c(=O)[nH]c1=O` (some centres undefined): the T/C (dose: 0.06 mg/kg/injection, schedule: Q01DX005 (ip), vehicle: Klucel (hydroxypropylcellulose) (HPC)) is 105 % of control; the T/C (dose: 0.12 mg/kg/injection, schedule: Q01DX001 (ip), vehicle: Klucel (hydroxypropylcellulose) (HPC)) was 102 % of control and 104 % of control and 107 % of control; the T/C (dose: 0.12 mg/kg/injection, schedule: Q01DX005 (ip), vehicle: Klucel (hydroxypropylcellulose) (HPC)) is 100 % of control; the T/C (dose: 0.25 mg/kg/injection, schedule: Q01DX001 (ip), vehicle: Klucel (hydroxypropylcellulose) (HPC)) is 101 % of control and 102 % of control and 112 % of control; the T/C (dose: 0.25 mg/kg/injection, schedule: Q01DX005 (ip), vehicle: Klucel (hydroxypropylcellulose) (HPC)) is 105 % of control; the T/C (dose: 0.5 mg/kg/injection, schedule: Q01DX001 (ip), vehicle: Klucel (hydroxypropylcellulose) (HPC)) is 97 % of control and 103 % of control and 109 % of control. Besides, the T/C was 102 % of control (dose: 0.5 mg/kg/injection, schedule: Q01DX005 (ip), vehicle: Klucel (hydroxypropylcellulose) (HPC)); 96 % of control and 97 % of control and 102 % of control under setting [4].

In the case of `CN(C)C(=O)N(CCCl)N=O`, the T/C is, setting by setting: (dose: 5.0 mg/kg/injection, schedule: Q01DX001 (ip), vehicle: DMSO) 106 % of control; (dose: 8.3 mg/kg/injection, schedule: Q01DX001 (ip), vehicle: DMSO) 112 % of control; (dose: 12.5 mg/kg/injection, schedule: Q01DX001 (ip), vehicle: water) 188 % of control; (dose: 23.0 mg/kg/injection, schedule: Q01DX001 (ip), vehicle: DMSO) 366 % of control; (dose: 25.0 mg/kg/injection, schedule: Q01DX001 (ip), vehicle: water) 332 % of control; (dose: 38.4 mg/kg/injection, schedule: Q01DX001 (ip), vehicle: DMSO) 365 % of control.

Turning to `C[C@]1(O)CC[C@H]2[C@@H]3CCC4=CC(=O)CC[C@]4(C)[C@@]3(F)[C@@H](O)C[C@@]21C`, the T/C runs as follows: (dose: 8.0 mg/kg/injection, schedule: Q01DX005 (ip), vehicle: Klucel (hydroxypropylcellulose) (HPC)) 91 % of control and 102 % of control; (dose: 16.0 mg/kg/injection, schedule: Q01DX005 (ip), vehicle: Klucel (hydroxypropylcellulose) (HPC)) 96 % of control and 102 % of control; (dose: 32.0 mg/kg/injection, schedule: Q01DX005 (ip), vehicle: Klucel (hydroxypropylcellulose) (HPC)) 93 % of control; (dose: 64.0 mg/kg/injection, schedule: Q01DX005 (ip), vehicle: Klucel (hydroxypropylcellulose) (HPC)) 97 % of control and 98 % of control; (dose: 128.0 mg/kg/injection, schedule: Q01DX005 (ip), vehicle: Klucel (hydroxypropylcellulose) (HPC)) 92 % of control and 104 % of control; (dose: 256.0 mg/kg/injection, schedule: Q01DX005 (ip), vehicle: Klucel (hydroxypropylcellulose) (HPC)) 93 % of control and 97 % of control. Moreover, the T/C (dose: 512.0 mg/kg/injection, schedule: Q01DX005 (ip), vehicle: Klucel (hydroxypropylcellulose) (HPC)) was 91 % of control.

With `COc1cccc2c1C(=O)c1c(O)c3c(c(O)c1C2=O)C[C@@](O)(C(C)=O)C[C@@H]3OC1CC(N)C(O)C(C)O1` (some centres undefined), the T/C (dose: 0.12 mg/kg/injection, schedule: Q01DX005 (ip), vehicle: water) was 105 % of control; the T/C (dose: 0.25 mg/kg/injection, schedule: Q01DX005 (ip), vehicle: water) is 102 % of control; the T/C (dose: 0.5 mg/kg/injection, schedule: Q01DX005 (ip), vehicle: water) was 93 % of control and 105 % of control; the T/C (dose: 1.0 mg/kg/injection, schedule: Q01DX005 (ip), vehicle: water) was 92 % of control and 93 % of control; the T/C (dose: 2.0 mg/kg/injection, schedule: Q01DX005 (ip), vehicle: water) was 104 % of control.

With `CCCCCCC1CC1C(=O)NCCCCCN=C(N)N` (centres undefined), the T/C was 96 % of control (dose: 10.0 mg/kg/injection, schedule: Q01DX005 (ip), vehicle: Klucel (hydroxypropylcellulose) (HPC)); 102 % of control (dose: 20.0 mg/kg/injection, schedule: Q01DX005 (ip), vehicle: Klucel (hydroxypropylcellulose) (HPC)); 101 % of control (dose: 40.0 mg/kg/injection, schedule: Q01DX005 (ip), vehicle: Klucel (hydroxypropylcellulose) (HPC)).

As to `C(COCCOCC1CO1)OCCOCC1CO1` (centres undefined), the T/C was 100 % of control and 118 % of control under setting [3]; 97 % of control and 121 % of control (dose: 50.0 mg/kg/injection, schedule: Q01DX005 (ip), vehicle: saline); 97 % of control and 100 % of control (dose: 100.0 mg/kg/injection, schedule: Q01DX005 (ip), vehicle: saline); 105 % of control (dose: 200.0 mg/kg/injection, schedule: Q01DX005 (ip), vehicle: saline).

As for `O=CC(NC(=O)N(CCCl)N=O)C(O)C(O)C(O)CO` (centres undefined), the T/C reads like this: (dose: 0.12 mg/kg/injection, schedule: Q01DX005 (ip), vehicle: saline) 97 % of control and 99 % of control and 108 % of control; (dose: 0.13 mg/kg/injection, schedule: Q01DX005 (ip), vehicle: saline) 91 % of control and 93 % of control; under setting [4], 93 % of control and 104 % of control and 107 % of control; (dose: 1.0 mg/kg/injection, schedule: Q01DX005 (ip), vehicle: Klucel (hydroxypropylcellulose) (HPC)) 108 % of control; (dose: 2.0 mg/kg/injection, schedule: Q01DX001 (ip), vehicle: Klucel (hydroxypropylcellulose) (HPC)) 99 % of control and 103 % of control and 108 % of control; (dose: 2.0 mg/kg/injection, schedule: Q01DX005 (ip), vehicle: Klucel (hydroxypropylcellulose) (HPC)) 119 % of control. For the same molecule, the T/C is 115 % of control (dose: 3.13 mg/kg/injection, schedule: Q01DX001 (ip), vehicle: saline); 100 % of control and 107 % of control and 108 % of control (dose: 4.0 mg/kg/injection, schedule: Q01DX001 (ip), vehicle: Klucel (hydroxypropylcellulose) (HPC)); 195 % of control (dose: 4.0 mg/kg/injection, schedule: Q01DX009 (ip), vehicle: saline); 122 % of control (dose: 6.25 mg/kg/injection, schedule: Q01DX001 (ip), vehicle: saline); 103 % of control and 110 % of control and 113 % of control (dose: 8.0 mg/kg/injection, schedule: Q01DX001 (ip), vehicle: Klucel (hydroxypropylcellulose) (HPC)); 111 % of control and 115 % of control and 119 % of control (dose: 16.0 mg/kg/injection, schedule: Q01DX001 (ip), vehicle: Klucel (hydroxypropylcellulose) (HPC)). The T/C (dose: 25.0 mg/kg/injection, schedule: Q01DX001 (ip), vehicle: saline) is 157 % of control.

`Nc1n[nH]c(N)n1`: the T/C reads like this: (dose: 128.0 mg/kg/injection, schedule: Q01DX005 (ip), vehicle: saline) 93 % of control and 88 % of control; (dose: 256.0 mg/kg/injection, schedule: Q01DX005 (ip), vehicle: saline) 95 % of control and 100 % of control; (dose: 512.0 mg/kg/injection, schedule: Q01DX005 (ip), vehicle: saline) 92 % of control and 103 % of control; (dose: 1024.0 mg/kg/injection, schedule: Q01DX005 (ip), vehicle: saline) 118 % of control and 87 % of control.

As to `S=P(N1CC1)(N1CC1)N1CC1.[Cl-].[Cl-].[NH2-].[NH2-].[Pt+4]`, the T/C reads like this: (dose: 3.0 mg/kg/injection, schedule: Q01DX005 (ip), vehicle: dextrose) 122 % of control; (dose: 6.0 mg/kg/injection, schedule: Q01DX005 (ip), vehicle: dextrose) 155 % of control.
